This is an account of results in patent US20140030260A1, “METHODS AND COMPOSITIONS TO ELIMINATE CHRONIC LYMPHOCYTIC LEUKEMIA AND OTHER HEMATOLOGIC MALIGNANT CELLS IN STROMAL MICROENVIRONMENT FOR CANCER THERAPY” (BOARD OF REGENTS, THE UNIVERSITY OF TEXAS SYSTEM, priority 2010, published 2014).

Molecules are shown by their SMILES. Entries after “also recorded” stand apart in the source; their conditions may differ.

Data set [1] relates to primary leukemia cells (CLL). The data set can be described thus: Viability of primary CLL cells cultured alone or with stromal cells, flow cytometry after annexin-V/PI double-staining. The following applies: for effect on the toxicity of selecticine in CLL cells: patient #17, co-culture with various types of marrow cells, 20 μM selecticine. Background: Flow cytometry measures light scatter and fluorescence of single cells or particles in a stream.
Protocol: The cells were then treated with 50 μM selecticine for 2 days, and cell viability was measured by flow cytometry analysis after double-staining with annexin-V and PI.
The cells were then treated with 50 or 100 μM selecticine for 2 days. Cell viability was then measured by flow cytometry analysis after double-staining with annexin-V and PI.
The cells were then treated with 50 μM selecticine for 2 days. Cell viability was then measured by flow cytometry analysis after double-staining with annexin-V and PI.
Cell viability was then measured by flow cytometry analysis after double-staining with annexin-V and PI.
CLL cells isolated from two different patients were treated as follow: (1) Control (CLL alone); (2) Selenocystine mixed with the conditioned medium (CM) of stromal cell culture; (3) Medium from stromal cell culture incubated with selenocystine. After an additional 48-h incubation with CLL cells (without stramal), cell viability was measured by flow cytometry analysis after double-staining with annexin-V and PI.
CLL cells (without stromal) were then incubated for 72 hours with: (1) control medium; (2) 200 μM 2-mercaptoethanol (2ME) alone; (3) 50 μM selenocystine alone; (4) Selecticine-02 (50 μM selenocystine+200 μM 2-mercaptoethanol pre-mixed overnight). Cell viability was measured by flow cytometry analysis after double-staining with annexin-V and PI.
The experimental conditions were the same as FIG. 14, except the selenocystine:2ME ration was 5:2 instead of 1:4.
The cells were then treated with 50 mM selenocystine for 2 days.

Data set [2] deals with EBV-immortalized normal lymphocytes. Description: Viability of immortalized normal lymphocytes with or without stromal cells, annexin-V/PI flow cytometry. The class given is cell-based. Conditions: not further specified. The text has this:
The numbers indicate % of viable cells.

For a further data set, the system named is CLL cells. Description: ROS, cellular thiol and glutathione in CLL cells (mitosox Red, CMFDA). The class given is cell-based, human. Conditions: in the presence of stromal cells (HS-5); 50 μM. The source says: Mitochondrial ROS levels were stained by mitosox Red (A) and cellular thiol was stained by CMFDA (B).

In the case of `CCCCS(=N)(=O)CCC(N)C(=O)O` (stereo not drawn) [BSO, reference compound], the “effect on the toxicity of selecticine in CLL cells” value in data set [1] was “enhanced”.

With `Nc1nc(F)nc2c1ncn2[C@@H]1O[C@H](CO)[C@@H](O)[C@@H]1O` [F-ara-A, reference compound], the “effect of stromal cells on the drug's cytotoxicity in CLL cells” value in data set [1] (patient #10, different types of stromal cells, 50 μM selecticine, 20 μM F-ara-A or 20 μM oxaliplatin, 2 days) was “protected”.

On to `CC(=O)N[C@@H](CS)C(=O)O` [NAC, reference compound], for which the “effect on the toxicity of selecticine in CLL cells” value in data set [1] is given as “protected”.

In the case of `NC(C[SeH])C(=O)O` (stereo not drawn) [selenocysteine, 3-selenyl-2-aminopropanoic acid], the “toxicity to CLL leukemia cells of the active compound formed by stromal cells” value in data set [1] (mechanistic studies) is “highly toxic”. In addition, the “toxicity to normal cells” value in data set [2] is “low toxicity”.

Consider `NC(C[Se][Se]CC(N)C(=O)O)C(=O)O` (stereo not drawn) [selenocystine, 2-amino-3-(2-amino-2-carboxy-ethyl)selanylselanyl-propanoic acid], for which the “ROS generation in CLL cells (mitochondrial ROS, mitosox Red)” value in the data set on CLL cells is on record as “significant increase in ROS production”. The “cytotoxic effect on leukemia (CLL) cells” value in data set [1] (cultured alone / in the absence of stromal cells) was “only moderate cytotoxic effect”. Moreover, in data set [1] (in the presence of bone marrow stromal cells (HS-5), 50 μM, 2 days), the “killing of primary CLL cells (cell viability)” value was “highly potent cytotoxic effect; also recorded: considerable leukemia cell death”. Moreover, the “toxicity to CLL cells after conversion by stromal factor in stromal conditioned medium” value in data set [1] (mixed or incubated with stromal cell culture medium, 48-h incubation with CLL cells without stromal cells) is reported as “highly toxic”.
